From ChEMBL document CHEMBL1154618, “Agonist vs antagonist behavior of delta opioid peptides containing novel phenylalanine analogues in place of Tyr(1)” (J Med Chem, 2009)
Calls of active or inactive are those of the source. The rule behind the calls is not given here. Non-standard residues stand in square brackets, D forms with d. Residues, ends and D or L forms follow the SMILES beside them. Phe(2,6-Me2,4-CONH2) = Cc1cc(C(N)=O)cc(C)c1C[C@H](N)C(=O)O; Dmt = Cc1cc(O)cc(C)c1C[C@H](N)C(=O)O; Tic = O=C(O)[C@@H]1Cc2ccccc2CN1

Columns and labels:
[1] = biological target: Delta-type opioid receptor (Mus musculus) (UniProt P32300); experiment: Antagonist activity at delta opioid receptor in mouse vas deferens assessed as inhibition of DPDPE-stimulated muscle contraction; assay type: functional, tissue-based
[2] = biological target: Kappa-type opioid receptor (Cavia porcellus, UniProt P41144); experiment: Displacement of [3H]U69-593 from kappa opioid receptor in guinea pig brain membrane; assay type: cell membranes
[3] = biological target: Delta-type opioid receptor (Rattus norvegicus, UniProt P33533); experiment: Displacement of [3H]DSLET from delta opioid receptor in rat brain membrane; assay type: cell membranes
[4] = biological target: Mu-type opioid receptor (Cavia porcellus) (UniProt P97266); experiment: Antagonist activity at mu opioid receptor in guinea pig ileum assessed as inhibition of […]; assay type: functional, tissue-based
Mu-type opioid receptor [5] = biological target: Mu-type opioid receptor (Rattus norvegicus, UniProt P33535); experiment: Displacement of [3H]DAMGO from mu opioid receptor in rat brain membrane; assay type: cell membranes
Mu-type opioid receptor [6] = biological target: Mu-type opioid receptor (Cavia porcellus, UniProt P97266); experiment: Agonist activity at mu opioid receptor in guinea pig ileum assessed as effect on muscle contraction; assay type: functional, tissue-based
Chain of Mu-type opioid receptor (Cavia porcellus, UniProt P97266) (P97266 whole entry): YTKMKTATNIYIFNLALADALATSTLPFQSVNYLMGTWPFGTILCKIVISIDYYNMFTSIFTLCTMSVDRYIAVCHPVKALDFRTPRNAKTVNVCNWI

Chain of Delta-type opioid receptor (Mus musculus) (P32300 whole entry): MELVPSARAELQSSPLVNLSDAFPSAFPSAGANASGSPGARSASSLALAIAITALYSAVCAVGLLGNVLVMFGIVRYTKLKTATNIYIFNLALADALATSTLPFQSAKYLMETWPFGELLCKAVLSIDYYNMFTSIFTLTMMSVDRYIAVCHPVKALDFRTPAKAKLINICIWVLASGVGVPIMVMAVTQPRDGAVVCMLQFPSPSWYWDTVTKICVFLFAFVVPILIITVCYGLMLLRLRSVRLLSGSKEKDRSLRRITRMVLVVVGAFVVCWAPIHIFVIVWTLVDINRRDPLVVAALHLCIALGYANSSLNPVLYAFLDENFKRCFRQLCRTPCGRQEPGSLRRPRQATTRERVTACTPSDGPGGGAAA
Chain of Kappa-type opioid receptor (P41144 whole entry): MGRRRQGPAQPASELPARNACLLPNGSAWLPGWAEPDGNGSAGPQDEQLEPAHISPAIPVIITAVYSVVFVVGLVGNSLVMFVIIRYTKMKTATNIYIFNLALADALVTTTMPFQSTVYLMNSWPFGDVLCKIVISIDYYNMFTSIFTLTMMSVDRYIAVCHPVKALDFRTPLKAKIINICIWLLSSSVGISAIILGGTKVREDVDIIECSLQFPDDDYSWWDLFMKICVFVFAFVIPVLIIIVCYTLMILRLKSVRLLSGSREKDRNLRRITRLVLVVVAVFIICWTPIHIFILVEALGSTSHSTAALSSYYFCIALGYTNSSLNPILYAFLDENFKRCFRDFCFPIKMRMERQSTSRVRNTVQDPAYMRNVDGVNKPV
Chain of Mu-type opioid receptor (Rattus norvegicus, UniProt P33535) (P33535 whole entry): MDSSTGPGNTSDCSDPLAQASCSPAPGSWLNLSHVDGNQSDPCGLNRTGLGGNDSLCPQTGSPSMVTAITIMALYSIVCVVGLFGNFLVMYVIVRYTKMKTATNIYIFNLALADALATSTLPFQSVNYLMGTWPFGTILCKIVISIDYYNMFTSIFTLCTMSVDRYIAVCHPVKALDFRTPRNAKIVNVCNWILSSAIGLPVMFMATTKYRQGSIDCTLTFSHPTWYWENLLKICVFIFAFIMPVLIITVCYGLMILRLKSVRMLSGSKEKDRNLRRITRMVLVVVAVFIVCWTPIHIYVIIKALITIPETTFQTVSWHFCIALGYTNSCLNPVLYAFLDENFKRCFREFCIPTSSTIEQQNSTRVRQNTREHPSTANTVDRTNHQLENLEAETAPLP
Chain of Delta-type opioid receptor (P33533 whole entry): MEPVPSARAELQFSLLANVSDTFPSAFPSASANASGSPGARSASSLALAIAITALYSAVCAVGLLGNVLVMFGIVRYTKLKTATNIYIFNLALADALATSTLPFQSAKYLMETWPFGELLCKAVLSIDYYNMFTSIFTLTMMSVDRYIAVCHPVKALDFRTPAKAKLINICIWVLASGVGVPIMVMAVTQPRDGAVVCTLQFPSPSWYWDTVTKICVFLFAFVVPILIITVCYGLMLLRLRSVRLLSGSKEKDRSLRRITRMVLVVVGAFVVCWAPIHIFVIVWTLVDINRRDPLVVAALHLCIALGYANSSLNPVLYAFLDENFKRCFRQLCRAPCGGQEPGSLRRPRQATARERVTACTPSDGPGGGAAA
Chain of Mu-type opioid receptor (Cavia porcellus) (P97266 whole entry): as the sequence (P97266 whole entry) above

Row | Structure (SMILES) | Ke [1] [nM] | Ki [2] [µM] | Ki [3] [µM] | Ke [4] | Ki (Mu-type opioid receptor [5]) [µM] | IC50 (Mu-type opioid receptor [6]) | IC50 (Mu-type opioid receptor [6]; read-out: IC50) [µM]
1 | Cc1cc(C(=O)NCCc2ccc(-c3ccccc3)cc2)cc(C)c1C[C@H](N)C(=O)N1Cc2ccccc2C[C@H]1C(=O)O | 1.76 |  |  |  |  |  | 
2 | N[C@@H](Cc1ccc(C(=O)NCCc2ccc(-c3ccccc3)cc2)cc1)C(=O)N1Cc2ccccc2C[C@H]1C(=O)N[C@@H](Cc1ccccc1)C(=O)O | 18.7 |  |  |  |  |  | 
3 | N[C@@H](Cc1ccc(C(=O)NCCc2ccc(-c3ccccc3)cc2)cc1)C(=O)N1Cc2ccccc2C[C@H]1C(=O)O | 17.8 |  |  |  |  |  | 
4 | N[C@@H](Cc1ccc(O)cc1)C(=O)N1Cc2ccccc2C[C@H]1C(=O)O (H-Tyr-[Tic]-OH) | 263 | > 10 | 0.242 | inactive | > 1 | Not Active | 
5 | N[C@@H](Cc1ccc(O)cc1)C(=O)N1Cc2ccccc2C[C@H]1C(=O)N[C@@H](Cc1ccccc1)C(=O)N[C@@H](Cc1ccccc1)C(=O)O (H-Y[Tic]FF-OH) |  | > 1 |  |  |  |  | > 10
6 | Cc1cc(O)cc(C)c1C[C@H](N)C(=O)N1Cc2ccccc2C[C@H]1C(=O)O (H-[Dmt]-[Tic]-OH) |  | > 1 |  | inactive | 1.36 | Not Active | 
7 | Cc1cc(O)cc(C)c1C[C@H](N)C(=O)N1Cc2ccccc2C[C@H]1C(=O)N[C@@H](Cc1ccccc1)C(=O)N[C@@H](Cc1ccccc1)C(=O)O (H-[Dmt][Tic]FF-OH) | 0.196 | > 1 |  |  |  |  | 0.769
8 | Cc1cc(C(N)=O)cc(C)c1C[C@H](N)C(=O)N1Cc2ccccc2C[C@H]1C(=O)N[C@@H](Cc1ccccc1)C(=O)N[C@@H](Cc1ccccc1)C(=O)O (H-[Phe(2,6-Me2,4-CONH2)][Tic]FF-OH) | 0.627 | > 1 | 0.000501 |  |  |  | 
